From patent publication US20060084172A1, “Method for producing stem cells with increased developmental potential” (Julius-Maximilians-Unversitat Wurzburg, priority 2001, published 2006)

Legend:
Oct4 gene = experiment: Oct4-gene specific RT-PCR after incubation of neural stem cells; type: cell-based, mouse; conditions: 2-day incubation of neural stem cells (NSC #417, NSC #125); 150-250 nanomolar Trichostatin A and/or 300-600 nanomolar 5-aza-2′ deoxycytidine; HPRT normalization
Procedure: For investigating whether the incubation of adult neural stem cells of Example 1 with deacetylase inhibitors (e.g. Trichostatin A) and/or nucleotide analogs (e.g. 5-aza-2′ deoxycytidine), which prevent a methylation, influences the gene expression, the stem cells were incubated with one of these substances or a mixture of these substances. This was performed in Neurobasal medium, B27 supplement, 20-40 ng EGF, 20-40 ng FGF-2, 150-250 nanomolar Trichostatin A and/or 300-600 nanomolar 5-aza-2′ deoxycytidine for 2 or 4 days. Subsequently to the incubation, RNA was isolated from the cells, and cDNA was produced by means of the enzyme reverse transcriptase. By using gene-specific primers, the gene expression of the Oct4 gene was investigated. The Oct4 gene serves as an example of a development-specific regulator gene. It is only active in very early development stages (zygote, morula, blastula). Later, the expression is restricted to germ cells. The Oct4 gene is not transcribed in the adult organism outside the germ cells, thus also not in somatic stem cells. The Oct4 gene is thus only active in cells, which have a development potential larger than that of the somatic stem cells [see Pesce M, Anastassiedies K, Scholer H R (1999) Oct4: lessons of totipotency from embryonic stem cells. Cells Tissues Organs 165:144-152]. […] Under these conditions, no Oct4 expression was detected anymore. […]

mouse blastocysts = experiment: Injection of treated neural stem cells into blastocysts, Y chromosome-specific PCR of tissues of chimeric animals; type: in vivo; conditions: treated neural stem cells injected into blastocysts, animals examined at 4 weeks, FIG. 4b versus untreated FIG. 4a
Text: In order to determine the plasticity of the employed somatic stem cell types, neural and hematopoietic stem cells of the Examples 1 and 2 were isolated and injected into mouse blastocysts (see FIG. 2). From the blastocyst develops the complete embryo and later the adult animal. By this method, the injected stem cells are subjected to all inductive processes, which take place during the development of the embryo. If the used hematopoietic or neural stem cells should have the capability to differentiate to all or many tissues or cell types of the adult animal, then descendants of the injected stem cells should be detectable for the developed animal in several different or all tissues and organs. If this detection is positive and the donor cells carry foreign, tissue-specific markers and perform foreign, tissue-specific functions, then the treatment of the somatic stem cells has led to an increased plasticity.
In order to investigate the development potential of somatic stem cells treated according to Example 4, neural stem cells of Example 4 (from male animals) were washed and injected (20-40 pieces) into blastocysts, which were isolated from superovulated females after object pairing. […] Male donor cells, which originate from the injected neural stem cells (NSC), were detected by a Y chromosome-specific PCR reaction (YMT primer). […]

`CC(/C=C/C(=O)NO)=C\[C@@H](C)C(=O)c1ccc(N(C)C)cc1` [Trichostatin A] was tested, and the “Oct4 gene expression (RT-PCR)” value (Oct4 gene) was “reactivates the Oct4 gene” and the “distribution spectrum of donor cells in tissues” value (mouse blastocysts) was “substantially wider distribution spectrum”.
